In US20080045506A1 (GLAXO GROUP LIMITED, priority 2004, published 2008):
Structures can show the parent of a compound that is named as a salt.

Molecular target: T1, histamine H3 receptor (Homo sapiens, UniProt Q9Y5N1)
T1 construct: expressed in transfected cells; host or cells: CHO K1 cells (pSwitch/pGene GeneSwitch system, mifepristone-induced), clone 3H3; membranes
Test: Histamine H3 functional antagonist assay (method B)
Format: biochemical
Details: [35S]-GTPγS SPA, membrane prepared from cultured H3 cells, histamine at EC80, averages of a number of experiments, read-out: functional pKi (fpKi), antagonism (converted)
Description: A membrane preparation containing histamine H3 receptors may be prepared in accordance with the following procedures:
(i) Generation of Histamine H3 Cell Line
DNA encoding the human histamine H3 gene (Huvar, A. et al. (1999) Mol. Pharmacol. 55(6), 1101-1107) was cloned into a holding vector, pcDNA3.1 TOPO (InVitrogen) and its cDNA was isolated from this vector by restriction digestion of plasmid DNA with the enzymes BamH1 and Not-1 and ligated into the inducible expression vector pGene (InVitrogen) digested with the same enzymes. The GeneSwitch™ system (a system where in transgene expression is switched off in the absence of an inducer and switched on in the presence of an inducer) was performed as described in U.S. Pat. Nos. 5,364,791; 5,874,534; and 5,935,934. Ligated DNA was transformed into competent DH5α E. coli host bacterial cells and plated onto Luria Broth (LB) agar containing Zeocin™ (an antibiotic which allows the selection of cells expressing the sh ble gene which is present on pGene and pSwitch) at 50 μg ml^−1. Colonies containing the re-ligated plasmid were identified by restriction analysis. DNA for transfection into mammalian cells was prepared from 250 ml cultures of the host bacterium containing the pGeneH3 plasmid and isolated using a DNA preparation kit (Qiagen Midi-Prep) as per manufacturers guidelines (Qiagen).
CHO K1 cells previously transfected with the pSwitch regulatory plasmid (InVitrogen) were seeded at 2×10e6 cells per T75 flask in Complete Medium, containing Hams F12 (GIBCOBRL, Life Technologies) medium supplemented with 10% v/v dialysed foetal bovine serum, L-glutamine, and hygromycin (100 μg ml^−1), 24 hours prior to use. Plasmid DNA was transfected into the cells using Lipofectamine plus according to the manufacturers guidelines (InVitrogen). 48 hours post transfection cells were placed into complete medium supplemented with 500 μg ml^−1 Zeocin™.
10-14 days post selection 10 nM Mifepristone (InVitrogen), was added to the culture medium to induce the expression of the receptor. 18 hours post induction cells were detached from the flask using ethylenediamine tetra-acetic acid (EDTA; 1:5000; InVitrogen), following several washes with phosphate buffered saline pH 7.4 and resuspended in Sorting Medium containing Minimum Essential Medium (MEM), without phenol red, and supplemented with Earles salts and 3% Foetal Clone II (Hyclone). Approximately 1×10e7 cells were examined for receptor expression by staining with a rabbit polyclonal antibody, 4a, raised against the N-terminal domain of the histamine H3 receptor, incubated on ice for 60 minutes, followed by two washes in sorting medium. Receptor bound antibody was detected by incubation of the cells for 60 minutes on ice with a goat anti rabbit antibody, conjugated with Alexa 488 fluorescence marker (Molecular Probes). Following two further washes with Sorting Medium, cells were filtered through a 50 μm Filcon™ (BD Biosciences) and then analysed on a FACS Vantage SE Flow Cytometer fitted with an Automatic Cell Deposition Unit. Control cells were non-induced cells treated in a similar manner. Positively stained cells were sorted as single cells into 96-well plates, containing Complete Medium containing 500 μg ml^−1 Zeocin™ and allowed to expand before reanalysis for receptor expression via antibody and ligand binding studies. One clone, 3H3, was selected for membrane preparation.
(ii) Membrane Preparation from Cultured Cells
All steps of the protocol are carried out at 4° C. and with pre-cooled reagents. The cell pellet is resuspended in 10 volumes of homogenisation buffer (50 mM N-2-hydroxyethylpiperazine-N′-2-ethanesulfonic acid (HEPES), 1 mM ethylenediamine tetra-acetic acid (EDTA), pH 7.4 with KOH, supplemented with 10e-6M leupeptin (acetyl-leucyl-leucyl-arginal; Sigma L2884), 25 μg/ml bacitracin (Sigma B0125), 1 mM phenylmethylsulfonyl fluoride (PMSF) and 2×10e-6M pepstain A (Sigma)). […]

T1 sequence (Q9Y5N1 whole entry): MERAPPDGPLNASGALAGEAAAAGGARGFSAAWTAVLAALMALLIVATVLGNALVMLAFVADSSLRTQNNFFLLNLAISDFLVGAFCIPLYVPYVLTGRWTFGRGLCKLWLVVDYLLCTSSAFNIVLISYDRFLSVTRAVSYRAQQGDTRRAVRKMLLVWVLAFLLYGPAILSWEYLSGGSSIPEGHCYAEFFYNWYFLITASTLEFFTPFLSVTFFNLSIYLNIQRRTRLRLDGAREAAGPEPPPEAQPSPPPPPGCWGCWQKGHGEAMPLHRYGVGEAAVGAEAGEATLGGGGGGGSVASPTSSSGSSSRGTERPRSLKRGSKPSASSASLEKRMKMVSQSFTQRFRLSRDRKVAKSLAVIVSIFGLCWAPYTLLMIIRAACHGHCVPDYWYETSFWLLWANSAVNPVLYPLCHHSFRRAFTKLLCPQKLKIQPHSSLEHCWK

Ki, ≤ 316 pM:
CCC(CC)N1CCN(C(=O)[C@H]2CCN(c3ccc(C(C)=O)cc3)C2)CC1 [Example E8, 1-[4-((3S)-3-{[4-(1-Ethylpropyl)-1-piperazinyl]carbonyl}-1-pyrrolidinyl)phenyl]ethanone]
CCC(CC)N1CCN(C(=O)[C@H]2CCN(c3ccc(-c4nc(C)no4)cc3)C2)CC1 [Example E9, 1-(1-Ethylpropyl)-4-({(3S)-1-[4-(3-methyl-1,2,4-oxadiazol-5-yl)phenyl]-3-pyrrolidinyl}carbonyl)piperazine]
CC(=O)c1ccc(N2CC[C@H](C(=O)N3CCCN(CC4CC4)CC3)C2)cc1 [Example E10, 1-[4-((3S)-3-{[4-(Cyclopropylmethyl)hexahydro-1H-1,4-diazepin-1-yl]carbonyl}-1-pyrrolidinyl)phenyl]ethanone]
Cc1noc(-c2ccc(N3CC[C@H](C(=O)N4CCCN(CC5CC5)CC4)C3)cc2)n1 [Example E11, 1-(Cyclopropylmethyl)-4-({(3S)-1-[4-(3-methyl-1,2,4-oxadiazol-5-yl)phenyl]-3-pyrrolidinyl}carbonyl)hexahydro-1H-1,4-diazepine]
O=C([C@H]1CCN(c2ccc(C(F)(F)F)nc2)C1)N1CCN(C2CCC2)CC1 [Example E12, 1-Cyclobutyl-4-({(3S)-1-[6-(trifluoromethyl)-3-pyridinyl]-3-pyrrolidinyl}carbonyl)piperazine]
Cc1noc(-c2ccc(N3CC[C@H](C(=O)N4CCN(C5CCC5)CC4)C3)cc2)n1 [Example E13, 1-Cyclobutyl-4-({(3S)-1-[4-(3-methyl-1,2,4-oxadiazol-5-yl)phenyl]-3-pyrrolidinyl}carbonyl)piperazine]
Cc1noc(-c2ccc(N3CC[C@H](C(=O)N4CCN(C(C)C)CC4)C3)cc2F)n1 [Example E24, 1-({(3S)-1-[3-Fluoro-4-(3-methyl-1,2,4-oxadiazol-5-yl)phenyl]-3-pyrrolidinyl}carbonyl)-4-(1-methylethyl)piperazine]
Cc1noc(-c2ccc(N3CC[C@H](C(=O)N4CCN(C(C)C)CC4)C3)c(F)c2)n1 [Example E25, 1-({(3S)-1-[2-Fluoro-4-(3-methyl-1,2,4-oxadiazol-5-yl)phenyl]-3-pyrrolidinyl}carbonyl)-4-(1-methylethyl)piperazine]
CC(=O)c1ccc(N2CC[C@H](C(=O)N3CCCN(C(C)C)CC3)C2)cc1 [Example E27, 1-[4-((3S)-3-{[4-(1-Methylethyl)hexahydro-1H-1,4-diazepin-1-yl]carbonyl}-1-pyrrolidinyl)phenyl]ethanone]
Cc1noc(-c2ccc(N3CC[C@H](C(=O)N4CCCN(C(C)C)CC4)C3)cc2)n1 [Example E28, 1-(1-Methylethyl)-4-({(3S)-1-[4-(3-methyl-1,2,4-oxadiazol-5-yl)phenyl]-3-pyrrolidinyl}carbonyl)hexahydro-1H-1,4-diazepine]
Cc1noc(-c2ccc(N3CC[C@H](C(=O)N4CCCN(C(C)C)CC4)C3)cc2F)n1 [Example E29, 1-({(3S)-1-[3-Fluoro-4-(3-methyl-1,2,4-oxadiazol-5-yl)phenyl]-3-pyrrolidinyl}carbonyl)-4-(1-methylethyl)hexahydro-1H-1,4-diazepine hydrochloride]
Cc1nnc(-c2ccc(N3CC[C@H](C(=O)N4CCN(C(C)C)CC4)C3)cc2)o1 [Example E30, 1-(1-Methylethyl)-4-({(3S)-1-[4-(5-methyl-1,3,4-oxadiazol-2-yl)phenyl]-3-pyrrolidinyl}carbonyl)piperazine]
Cc1nc(-c2ccc(N3CC[C@H](C(=O)N4CCN(C(C)C)CC4)C3)cc2)co1 [Example E32A, 1-(1-Methylethyl)-4-({(3S)-1-[4-(2-methyl-1,3-oxazol-4-yl)phenyl]-3-pyrrolidinyl}carbonyl)piperazine]
Cc1nc(-c2ccc(N3CC[C@H](C(=O)N4CCN(C(C)C)CC4)C3)cc2)no1 [Example E33, 1-(1-Methylethyl)-4-({(3S)-1-[4-(5-methyl-1,2,4-oxadiazol-3-yl)phenyl]-3-pyrrolidinyl}carbonyl)piperazine]
Cc1ncc(-c2ccc(N3CC[C@H](C(=O)N4CCN(C(C)C)CC4)C3)cc2)o1 [Example E34, 1-(1-Methylethyl)-4-({(3S)-1-[4-(2-methyl-1,3-oxazol-5-yl)phenyl]-3-pyrrolidinyl}carbonyl)piperazine]
CC(C)N1CCN(C(=O)[C@H]2CCN(c3ccc(C#N)cc3)C2)CC1 [Example E36, 4-((3S)-3-{[4-(1-Methylethyl)-1-piperazinyl]carbonyl}-1-pyrrolidinyl)benzonitrile hydrochloride]
CC(C)N1CCN(C(=O)[C@H]2CCN(c3ccc(-c4nnc(-c5ccccc5)o4)cc3)C2)CC1 [Example E40, 1-(1-Methylethyl)-4-({(3S)-1-[4-(5-phenyl-1,3,4-oxadiazol-2-yl)phenyl]-3-pyrrolidinyl}carbonyl)piperazine]
CC(C)N1CCN(C(=O)[C@H]2CCN(c3ccc(-c4ccno4)cc3)C2)CC1 [Example E41, 1-({(3S)-1-[4-(5-isoxazolyl)phenyl]-3-pyrrolidinyl}carbonyl)-4-(1-methylethyl)piperazine]
CC(C)N1CCN(C(=O)[C@H]2CCN(c3ccc(-n4ccnc4)cc3)C2)CC1 [Example E43, 1-({(3S)-1-[4-(1H-imidazol-1-yl)phenyl]-3-pyrrolidinyl}carbonyl)-4-(1-methylethyl)piperazine]
Cc1nnc(-c2ccc(N3CC[C@H](C(=O)N4CCCN(C(C)C)CC4)C3)cc2)o1 [Example E47, 1-(1-Methylethyl)-4-({(3S)-1-[4-(5-methyl-1,3,4-oxadiazol-2-yl)phenyl]-3-pyrrolidinyl}carbonyl)hexahydro-1H-1,4-diazepine hydrochloride]
CCc1noc(-c2ccc(N3CC[C@H](C(=O)N4CCCN(C(C)C)CC4)C3)cc2)n1 [Example E48, 1-({(3S)-1-[4-(3-Ethyl-1,2,4-oxadiazol-5-yl)phenyl]-3-pyrrolidinyl}carbonyl)-4-(1-methylethyl)hexahydro-1H-1,4-diazepine hydrochloride]
CCc1noc(-c2ccc(N3CC[C@H](C(=O)N4CCN(C(C)C)CC4)C3)cc2)n1 [Example E49, 1-({(3S)-1-[4-(3-Ethyl-1,2,4-oxadiazol-5-yl)phenyl]-3-pyrrolidinyl}carbonyl)-4-(1-methylethyl)piperazine hydrochloride]
Cc1noc(-c2ccc(N3CC[C@H](C(=O)N4CCN(C5CCC5)CC4)C3)cn2)n1 [Example E51, 1-Cyclobutyl-4-({(3S)-1-[6-(3-methyl-1,2,4-oxadiazol-5-yl)-3-pyridinyl]-3-pyrrolidinyl}carbonyl)piperazine hydrochloride]
Cc1noc(-c2ccc(N3CC[C@H](C(=O)N4CCN(C5CCC5)CC4)C3)cc2F)n1 [Example E52, 1-Cyclobutyl-4-({(3S)-1-[3-fluoro-4-(3-methyl-1,2,4-oxadiazol-5-yl)phenyl]-3-pyrrolidinyl}carbonyl)piperazine hydrochloride]
Cc1noc(-c2ccc(N3CC[C@H](C(=O)N4CCCN(C(C)C)CC4)C3)cn2)n1 [Example E53, 1-(1-Methylethyl)-4-({(3S)-1-[6-(3-methyl-1,2,4-oxadiazol-5-yl)-3-pyridinyl]-3-pyrrolidinyl}carbonyl)hexahydro-1H-1,4-diazepine hydrochloride]
